# Tests used:
# Experiment in all cases: KINOMEscan competition binding
# Settings in all cases: compound 10.0 µM
# [1] = system: ABL1 (human), P00519 [E255K]
# [2] = system: ABL1 (human), P00519 [T315I]
# ABL2 (human) = ABL2 (human) (UniProt P42684)
# AKT1 (human) = AKT1 (human) (UniProt P31749)
# AKT3 (human) = AKT3 (human) (UniProt Q9Y243)
# ALK (human) = ALK (human) (UniProt Q9UM73)
# CAMK2B (human) = CAMK2B (human) (UniProt Q13554)
# CDC42BPB (human) = CDC42BPB (human) (UniProt Q9Y5S2)
# CDC42BPG (human) = CDC42BPG (human) (UniProt Q6DT37)
# CDC42BPG (human), sequence (Q6DT37 whole entry, looked up): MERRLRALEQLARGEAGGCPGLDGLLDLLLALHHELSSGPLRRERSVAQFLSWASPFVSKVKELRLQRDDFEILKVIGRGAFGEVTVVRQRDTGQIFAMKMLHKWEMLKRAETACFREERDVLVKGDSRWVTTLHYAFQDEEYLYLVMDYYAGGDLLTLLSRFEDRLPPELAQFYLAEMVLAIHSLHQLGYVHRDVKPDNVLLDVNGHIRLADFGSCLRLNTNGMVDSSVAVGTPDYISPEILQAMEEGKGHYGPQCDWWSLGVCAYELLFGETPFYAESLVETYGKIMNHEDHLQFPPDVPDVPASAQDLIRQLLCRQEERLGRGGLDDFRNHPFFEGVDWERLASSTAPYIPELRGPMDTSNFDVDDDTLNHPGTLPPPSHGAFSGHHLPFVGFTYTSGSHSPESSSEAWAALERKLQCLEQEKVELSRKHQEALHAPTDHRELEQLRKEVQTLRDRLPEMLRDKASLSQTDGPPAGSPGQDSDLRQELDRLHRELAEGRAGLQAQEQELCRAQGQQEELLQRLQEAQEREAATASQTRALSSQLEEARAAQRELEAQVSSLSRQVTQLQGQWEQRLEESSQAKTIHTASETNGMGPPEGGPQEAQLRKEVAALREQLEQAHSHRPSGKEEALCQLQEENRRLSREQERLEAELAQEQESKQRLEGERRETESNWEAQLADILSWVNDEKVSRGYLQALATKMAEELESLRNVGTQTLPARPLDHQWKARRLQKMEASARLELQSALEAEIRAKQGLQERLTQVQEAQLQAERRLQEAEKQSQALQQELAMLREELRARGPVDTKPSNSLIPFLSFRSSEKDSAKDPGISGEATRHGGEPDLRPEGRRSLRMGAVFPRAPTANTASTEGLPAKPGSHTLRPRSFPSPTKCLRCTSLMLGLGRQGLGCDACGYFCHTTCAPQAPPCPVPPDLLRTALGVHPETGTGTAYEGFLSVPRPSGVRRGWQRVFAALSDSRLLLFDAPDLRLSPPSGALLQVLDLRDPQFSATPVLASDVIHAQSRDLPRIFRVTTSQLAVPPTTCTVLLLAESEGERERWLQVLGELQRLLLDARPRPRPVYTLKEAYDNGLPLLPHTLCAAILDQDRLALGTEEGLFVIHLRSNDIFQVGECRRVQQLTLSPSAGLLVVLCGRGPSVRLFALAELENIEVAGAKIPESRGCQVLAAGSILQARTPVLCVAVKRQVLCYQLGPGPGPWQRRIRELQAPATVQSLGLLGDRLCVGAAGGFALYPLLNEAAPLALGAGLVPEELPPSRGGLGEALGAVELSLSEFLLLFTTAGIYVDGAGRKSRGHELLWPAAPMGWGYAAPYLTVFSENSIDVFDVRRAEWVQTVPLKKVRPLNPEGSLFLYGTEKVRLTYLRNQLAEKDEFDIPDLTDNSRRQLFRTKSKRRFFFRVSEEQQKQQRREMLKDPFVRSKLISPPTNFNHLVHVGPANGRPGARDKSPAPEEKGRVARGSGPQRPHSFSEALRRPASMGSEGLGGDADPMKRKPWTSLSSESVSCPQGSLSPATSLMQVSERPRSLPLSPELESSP
# CDK14 (human) = CDK14 (human) (UniProt O94921)
# CDK15 (human) = CDK15 (human) (UniProt Q96Q40)
# DCLK1 (human) = DCLK1 (human) (UniProt O15075)
# DDR2 (human) = DDR2 (human) (UniProt Q16832)
# [3] = system: EGFR (human), P00533 [G719C; 746-750 del]
# EPHA1 (human) = EPHA1 (human) (UniProt P21709)
# EPHA2 (human) = EPHA2 (human) (UniProt P29317)
# EPHA6 (human) = EPHA6 (human) (UniProt Q9UF33)
# EPHA7 (human) = EPHA7 (human) (UniProt Q15375)
# EPHB3 (human) = EPHB3 (human) (UniProt P54753)
# FES (human) = FES (human) (UniProt P07332)
# FGFR3 (human) = FGFR3 (human) (UniProt P22607)
# [4] = system: FGFR3 (human), P22607 [G697C]
# FGFR4 (human) = FGFR4 (human) (UniProt P22455)
# IKBKE (human) = IKBKE (human) (UniProt Q14164)
# IKBKE (human), sequence (Q14164 whole entry, looked up): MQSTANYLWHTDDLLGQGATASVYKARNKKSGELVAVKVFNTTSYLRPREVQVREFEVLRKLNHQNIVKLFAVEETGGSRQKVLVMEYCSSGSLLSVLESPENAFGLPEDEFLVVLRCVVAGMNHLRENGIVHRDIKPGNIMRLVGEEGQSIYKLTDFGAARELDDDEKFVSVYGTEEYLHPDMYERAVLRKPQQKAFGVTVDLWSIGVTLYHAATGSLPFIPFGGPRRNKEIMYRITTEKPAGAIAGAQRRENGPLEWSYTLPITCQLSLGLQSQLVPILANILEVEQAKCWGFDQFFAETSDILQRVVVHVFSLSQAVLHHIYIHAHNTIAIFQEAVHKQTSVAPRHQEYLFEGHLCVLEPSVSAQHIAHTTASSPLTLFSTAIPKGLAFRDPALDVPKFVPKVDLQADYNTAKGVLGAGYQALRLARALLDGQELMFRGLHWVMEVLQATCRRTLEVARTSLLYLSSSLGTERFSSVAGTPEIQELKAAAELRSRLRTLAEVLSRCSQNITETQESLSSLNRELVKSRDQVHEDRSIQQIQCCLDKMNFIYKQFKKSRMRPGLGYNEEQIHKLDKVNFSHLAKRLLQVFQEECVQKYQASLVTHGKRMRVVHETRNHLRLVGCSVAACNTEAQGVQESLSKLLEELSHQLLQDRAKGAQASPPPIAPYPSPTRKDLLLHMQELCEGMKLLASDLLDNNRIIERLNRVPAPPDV
# ITK (human) = ITK (human) (UniProt Q08881)
# LCK (human) = LCK (human) (UniProt P06239)
# LCK (human), sequence (P06239 whole entry, looked up): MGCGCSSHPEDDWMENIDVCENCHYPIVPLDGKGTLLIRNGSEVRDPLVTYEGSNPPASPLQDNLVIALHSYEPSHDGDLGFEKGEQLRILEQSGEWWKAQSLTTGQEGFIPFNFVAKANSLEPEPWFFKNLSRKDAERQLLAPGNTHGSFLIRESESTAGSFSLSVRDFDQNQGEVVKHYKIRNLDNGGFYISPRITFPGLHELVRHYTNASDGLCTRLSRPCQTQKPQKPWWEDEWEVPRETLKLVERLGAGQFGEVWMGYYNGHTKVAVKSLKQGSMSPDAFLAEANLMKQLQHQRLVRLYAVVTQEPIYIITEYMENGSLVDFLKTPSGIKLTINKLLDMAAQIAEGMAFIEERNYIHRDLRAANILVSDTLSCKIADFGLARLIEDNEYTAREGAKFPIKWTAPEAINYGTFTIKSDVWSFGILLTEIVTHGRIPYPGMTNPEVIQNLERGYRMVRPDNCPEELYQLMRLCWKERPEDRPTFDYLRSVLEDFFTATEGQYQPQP
# MAP3K10 (human) = MAP3K10 (human) (UniProt Q02779)
# MAP3K12 (human) = MAP3K12 (human) (UniProt Q12852)
# MAPK1 (human) = MAPK1 (human) (UniProt P28482)
# MAPK12 (human) = MAPK12 (human) (UniProt P53778)
# MAPK12 (human), sequence (P53778 whole entry, looked up): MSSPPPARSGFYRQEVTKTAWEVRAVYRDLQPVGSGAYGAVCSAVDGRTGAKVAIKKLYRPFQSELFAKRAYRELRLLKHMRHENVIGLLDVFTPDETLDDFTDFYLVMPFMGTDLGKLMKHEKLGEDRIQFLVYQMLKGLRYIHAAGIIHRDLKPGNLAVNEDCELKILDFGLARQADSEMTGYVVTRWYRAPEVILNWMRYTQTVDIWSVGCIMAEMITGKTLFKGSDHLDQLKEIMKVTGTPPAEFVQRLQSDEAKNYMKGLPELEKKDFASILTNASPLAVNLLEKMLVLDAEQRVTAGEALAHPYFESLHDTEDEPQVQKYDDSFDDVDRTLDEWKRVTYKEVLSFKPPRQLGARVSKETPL
# MAPK13 (human) = MAPK13 (human) (UniProt O15264)
# MARK4 (human) = MARK4 (human) (UniProt Q96L34)
# NLK (human) = NLK (human) (UniProt Q9UBE8)
# NUAK1 (human) = NUAK1 (human) (UniProt O60285)
# NUAK1 (human), sequence (O60285 whole entry, looked up): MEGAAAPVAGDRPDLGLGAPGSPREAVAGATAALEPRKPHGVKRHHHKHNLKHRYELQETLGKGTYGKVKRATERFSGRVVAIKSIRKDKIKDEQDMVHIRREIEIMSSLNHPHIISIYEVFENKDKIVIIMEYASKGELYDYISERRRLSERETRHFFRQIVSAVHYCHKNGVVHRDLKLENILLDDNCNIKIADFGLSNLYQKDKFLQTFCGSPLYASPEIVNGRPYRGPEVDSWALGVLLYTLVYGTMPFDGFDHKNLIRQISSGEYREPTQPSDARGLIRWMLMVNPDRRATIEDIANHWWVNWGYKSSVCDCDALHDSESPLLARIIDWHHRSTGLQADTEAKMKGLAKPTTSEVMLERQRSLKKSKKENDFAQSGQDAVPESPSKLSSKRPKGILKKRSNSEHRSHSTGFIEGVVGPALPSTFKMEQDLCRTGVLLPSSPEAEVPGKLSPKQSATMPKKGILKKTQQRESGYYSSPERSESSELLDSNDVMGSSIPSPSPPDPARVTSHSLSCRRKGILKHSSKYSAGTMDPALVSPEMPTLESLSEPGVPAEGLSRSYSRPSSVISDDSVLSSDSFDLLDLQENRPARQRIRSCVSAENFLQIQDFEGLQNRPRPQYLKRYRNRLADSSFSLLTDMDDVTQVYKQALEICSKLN
# PAK1 (human) = PAK1 (human) (UniProt Q13153)
# PAK4 (human) = PAK4 (human) (UniProt O96013)
# PAK4 (human), sequence (O96013 whole entry, looked up): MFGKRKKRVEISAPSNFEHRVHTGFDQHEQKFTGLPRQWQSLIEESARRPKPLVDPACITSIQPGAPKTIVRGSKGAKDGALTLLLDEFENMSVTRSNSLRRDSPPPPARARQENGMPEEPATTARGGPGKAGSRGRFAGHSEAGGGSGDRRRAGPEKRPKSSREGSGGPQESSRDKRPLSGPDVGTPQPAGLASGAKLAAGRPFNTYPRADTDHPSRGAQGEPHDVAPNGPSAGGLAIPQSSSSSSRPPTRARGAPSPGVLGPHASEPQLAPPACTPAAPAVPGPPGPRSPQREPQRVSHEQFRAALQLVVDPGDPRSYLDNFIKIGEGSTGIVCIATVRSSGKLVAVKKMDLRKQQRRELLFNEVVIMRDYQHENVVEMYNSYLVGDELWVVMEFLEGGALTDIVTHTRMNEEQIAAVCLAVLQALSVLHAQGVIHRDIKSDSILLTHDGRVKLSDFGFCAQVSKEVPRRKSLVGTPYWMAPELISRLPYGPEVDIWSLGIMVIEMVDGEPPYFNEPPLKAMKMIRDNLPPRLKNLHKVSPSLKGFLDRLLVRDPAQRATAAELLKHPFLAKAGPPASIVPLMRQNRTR
# PRKAA2 (human) = PRKAA2 (human) (UniProt P54646)
# PTK2 (human) = PTK2 (human) (UniProt Q05397)
# RPS6KA5 KD1 (human) = RPS6KA5 KD1 (human) (UniProt O75582)
# STK25 (human) = STK25 (human) (UniProt O00506)
# TESK1 (human) = TESK1 (human) (UniProt Q15569)
# TESK1 (human), sequence (Q15569 whole entry, looked up): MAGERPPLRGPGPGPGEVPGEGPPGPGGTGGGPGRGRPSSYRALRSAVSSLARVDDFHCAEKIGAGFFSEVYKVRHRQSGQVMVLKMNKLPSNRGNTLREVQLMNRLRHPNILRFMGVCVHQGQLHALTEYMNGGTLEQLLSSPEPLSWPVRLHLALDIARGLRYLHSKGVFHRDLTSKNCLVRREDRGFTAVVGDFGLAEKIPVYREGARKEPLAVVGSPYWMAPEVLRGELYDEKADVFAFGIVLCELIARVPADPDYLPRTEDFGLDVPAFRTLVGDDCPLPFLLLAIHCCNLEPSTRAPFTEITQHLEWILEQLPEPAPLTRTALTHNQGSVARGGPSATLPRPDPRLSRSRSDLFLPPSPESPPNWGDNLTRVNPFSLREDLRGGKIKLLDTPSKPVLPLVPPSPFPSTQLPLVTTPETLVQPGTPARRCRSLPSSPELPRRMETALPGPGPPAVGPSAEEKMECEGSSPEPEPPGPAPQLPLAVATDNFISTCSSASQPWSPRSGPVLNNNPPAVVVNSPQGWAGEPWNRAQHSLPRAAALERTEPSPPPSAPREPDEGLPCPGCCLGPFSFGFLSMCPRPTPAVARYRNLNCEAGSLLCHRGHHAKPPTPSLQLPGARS
# TLK2 (human) = TLK2 (human) (UniProt Q86UE8)
compound,measurement,setting,value
COc1cc(N2CCN(C)CC2)ccc1Nc1ncc2c(n1)N(C)c1sccc1C(=O)N2C,"kinase still bound, per cent of control",[1],85%
same,"kinase still bound, per cent of control",[2],66%
same,"kinase still bound, per cent of control",ABL2 (human),92%
same,"kinase still bound, per cent of control",AKT1 (human),100%
same,"kinase still bound, per cent of control",AKT3 (human),100%
same,"kinase still bound, per cent of control",ALK (human),44%
same,"kinase still bound, per cent of control",CAMK2B (human),58%
same,"kinase still bound, per cent of control",CDC42BPB (human),99%
same,"kinase still bound, per cent of control",CDC42BPG (human),91%
same,"kinase still bound, per cent of control",CDK14 (human),96%
same,"kinase still bound, per cent of control",CDK15 (human),92%
same,"kinase still bound, per cent of control",DCLK1 (human),1.4%
same,"kinase still bound, per cent of control",DDR2 (human),91%
same,"kinase still bound, per cent of control",[3],82%
same,"kinase still bound, per cent of control",EPHA1 (human),87%
same,"kinase still bound, per cent of control",EPHA2 (human),100%
same,"kinase still bound, per cent of control",EPHA6 (human),97%
same,"kinase still bound, per cent of control",EPHA7 (human),92%
same,"kinase still bound, per cent of control",EPHB3 (human),93%
same,"kinase still bound, per cent of control",FES (human),100%
same,"kinase still bound, per cent of control",FGFR3 (human),100%
same,"kinase still bound, per cent of control",[4],83%
same,"kinase still bound, per cent of control",FGFR4 (human),40%
same,"kinase still bound, per cent of control",IKBKE (human),100%
same,"kinase still bound, per cent of control",ITK (human),81%
same,"kinase still bound, per cent of control",LCK (human),100%
same,"kinase still bound, per cent of control",MAP3K10 (human),97%
same,"kinase still bound, per cent of control",MAP3K12 (human),86%
same,"kinase still bound, per cent of control",MAPK1 (human),83%
same,"kinase still bound, per cent of control",MAPK12 (human),76%
same,"kinase still bound, per cent of control",MAPK13 (human),71%
same,"kinase still bound, per cent of control",MARK4 (human),59%
same,"kinase still bound, per cent of control",NLK (human),100%
same,"kinase still bound, per cent of control",NUAK1 (human),25%
same,"kinase still bound, per cent of control",PAK1 (human),81%
same,"kinase still bound, per cent of control",PAK4 (human),84%
same,"kinase still bound, per cent of control",PRKAA2 (human),94%
same,"kinase still bound, per cent of control",PTK2 (human),13%
same,"kinase still bound, per cent of control",RPS6KA5 KD1 (human),86%
same,"kinase still bound, per cent of control",STK25 (human),80%
same,"kinase still bound, per cent of control",TESK1 (human),90%
same,"kinase still bound, per cent of control",TLK2 (human),93%
COc1cc(N2CCN(C)CC2)ccc1Nc1ncc2c(n1)N(C)c1ccccc1N(C)C2=O,"kinase still bound, per cent of control",[1],100%
same,"kinase still bound, per cent of control",[2],100%
same,"kinase still bound, per cent of control",ABL2 (human),98%
same,"kinase still bound, per cent of control",AKT1 (human),91%
same,"kinase still bound, per cent of control",AKT3 (human),100%
same,"kinase still bound, per cent of control",ALK (human),11%
same,"kinase still bound, per cent of control",CAMK2B (human),92%
same,"kinase still bound, per cent of control",CDC42BPB (human),100%
same,"kinase still bound, per cent of control",CDC42BPG (human),100%
same,"kinase still bound, per cent of control",CDK14 (human),100%
same,"kinase still bound, per cent of control",CDK15 (human),68%
same,"kinase still bound, per cent of control",DCLK1 (human),56%
same,"kinase still bound, per cent of control",DDR2 (human),100%
same,"kinase still bound, per cent of control",[3],61%
same,"kinase still bound, per cent of control",EPHA1 (human),100%
same,"kinase still bound, per cent of control",EPHA2 (human),100%
same,"kinase still bound, per cent of control",EPHA6 (human),100%
same,"kinase still bound, per cent of control",EPHA7 (human),100%
same,"kinase still bound, per cent of control",EPHB3 (human),100%
same,"kinase still bound, per cent of control",FES (human),100%
same,"kinase still bound, per cent of control",FGFR3 (human),100%
same,"kinase still bound, per cent of control",[4],100%
same,"kinase still bound, per cent of control",FGFR4 (human),97%
same,"kinase still bound, per cent of control",IKBKE (human),100%
same,"kinase still bound, per cent of control",ITK (human),98%
same,"kinase still bound, per cent of control",LCK (human),100%
same,"kinase still bound, per cent of control",MAP3K10 (human),100%
same,"kinase still bound, per cent of control",MAP3K12 (human),100%
same,"kinase still bound, per cent of control",MAPK1 (human),100%
same,"kinase still bound, per cent of control",MAPK12 (human),78%
same,"kinase still bound, per cent of control",MAPK13 (human),100%
same,"kinase still bound, per cent of control",MARK4 (human),63%
same,"kinase still bound, per cent of control",NLK (human),100%
same,"kinase still bound, per cent of control",NUAK1 (human),100%
same,"kinase still bound, per cent of control",PAK1 (human),92%
same,"kinase still bound, per cent of control",PAK4 (human),100%
same,"kinase still bound, per cent of control",PRKAA2 (human),94%
same,"kinase still bound, per cent of control",PTK2 (human),85%
same,"kinase still bound, per cent of control",RPS6KA5 KD1 (human),100%
same,"kinase still bound, per cent of control",STK25 (human),89%
same,"kinase still bound, per cent of control",TESK1 (human),76%
same,"kinase still bound, per cent of control",TLK2 (human),96%
COc1cc(N2CCC(O)CC2)ccc1Nc1ncc2c(n1)N1CCc3cccc(c31)C(=O)N2C,"kinase still bound, per cent of control",[1],90%
same,"kinase still bound, per cent of control",[2],100%
same,"kinase still bound, per cent of control",ABL2 (human),96%
same,"kinase still bound, per cent of control",AKT1 (human),100%
same,"kinase still bound, per cent of control",AKT3 (human),61%
same,"kinase still bound, per cent of control",ALK (human),36%
same,"kinase still bound, per cent of control",CAMK2B (human),72%
same,"kinase still bound, per cent of control",CDC42BPB (human),94%
same,"kinase still bound, per cent of control",CDC42BPG (human),100%
same,"kinase still bound, per cent of control",CDK14 (human),91%
same,"kinase still bound, per cent of control",CDK15 (human),99%
same,"kinase still bound, per cent of control",DCLK1 (human),4.5%
same,"kinase still bound, per cent of control",DDR2 (human),90%
same,"kinase still bound, per cent of control",[3],78%
same,"kinase still bound, per cent of control",EPHA1 (human),100%
same,"kinase still bound, per cent of control",EPHA2 (human),95%
same,"kinase still bound, per cent of control",EPHA6 (human),82%
same,"kinase still bound, per cent of control",EPHA7 (human),92%
same,"kinase still bound, per cent of control",EPHB3 (human),100%
same,"kinase still bound, per cent of control",FES (human),93%
same,"kinase still bound, per cent of control",FGFR3 (human),100%
same,"kinase still bound, per cent of control",[4],97%
same,"kinase still bound, per cent of control",FGFR4 (human),56%
same,"kinase still bound, per cent of control",IKBKE (human),92%
same,"kinase still bound, per cent of control",ITK (human),90%
same,"kinase still bound, per cent of control",LCK (human),100%
same,"kinase still bound, per cent of control",MAP3K10 (human),100%
same,"kinase still bound, per cent of control",MAP3K12 (human),71%
same,"kinase still bound, per cent of control",MAPK1 (human),75%
same,"kinase still bound, per cent of control",MAPK12 (human),67%
same,"kinase still bound, per cent of control",MAPK13 (human),87%
same,"kinase still bound, per cent of control",MARK4 (human),86%
same,"kinase still bound, per cent of control",NLK (human),73%
same,"kinase still bound, per cent of control",NUAK1 (human),100%
same,"kinase still bound, per cent of control",PAK1 (human),83%
same,"kinase still bound, per cent of control",PAK4 (human),90%
same,"kinase still bound, per cent of control",PRKAA2 (human),100%
same,"kinase still bound, per cent of control",PTK2 (human),4.6%
same,"kinase still bound, per cent of control",RPS6KA5 KD1 (human),59%
same,"kinase still bound, per cent of control",STK25 (human),99%
same,"kinase still bound, per cent of control",TESK1 (human),100%
same,"kinase still bound, per cent of control",TLK2 (human),94%

# Reference: the kinase profiling compilation of Christmann-Franck et al. (2016)
